# Measurements: ChEMBL document CHEMBL1153329, “Bioactive metabolites produced by Chaetomium globosum, an endophytic fungus isolated from Ginkgo biloba” (Bioorg Med Chem Lett, 2009)
# Experiments:
# [1] = Toxicity against Artemia salina assessed as mortality rate at 10 ug/mL after 24 hrs by small modified microtiter-plate method; format: organism-based; conditions: in vivo, read-out: Activity
# [2] = test system: Rhizomucor miehei; assay: Antimicrobial activity against Mucor miehei at 10 ug/disk by agar diffusion method; format: functional; conditions: read-out: IZ
Compound,"mortality at 24 h, 10 ug/mL [1] [%]",zone of inhibition at 10 µg/disc [2] [mm]
C/C1=C\[C@@H](C)C/C=C/[C@H]2[C@@H]3O[C@]3(C)[C@@H](C)[C@H]3[C@H](Cc4c[nH]c5ccccc45)NC(=O)[C@]32C(=O)/C=C/C(=O)[C@@H]1O [CHAETOGLOBOSIN A],83.4,25
C/C1=C\[C@@H](C)C/C=C/[C@H]2[C@@H]3O[C@]3(C)[C@@H](C)[C@H]3[C@H](Cc4c[nH]c5ccccc45)NC(=O)[C@]32C(=O)CCC(=O)C1=O [CHAETOGLOBOSIN C],75.3,15
C[C@H](/C=C/C1=CC2=C(Cl)C(=O)[C@@]3(C)O[C@]4(O)[C@H](C)[C@@H](C)OC(=O)[C@@H]4[C@H]3C2=CO1)[C@@H](C)O [CHAETOMUGILIN A],78.3,
CC[C@H](C)/C=C/C1=CC2=C(Cl)C(=O)[C@@]3(C)O[C@]4(O)[C@H](C)[C@@H](C)OC(=O)[C@@H]4[C@H]3C2=CO1 [CHAETOMUGILIN D],75.2,
